In publication PMC9804871, “Effect of Opicapone on Levodopa Pharmacokinetics in Patients with Fluctuating Parkinson's Disease” (Movement Disorders, 2022):

Columns and labels:
[1] = 12-hour 3-O-methyldopa plasma pharmacokinetics; assay type: in vivo, human (patients with PD); settings: for 3-O-methyldopa Cmax,max, Geometric Mean (90% CI): N 12; for 3-O-methyldopa tmax: median; for 3-O-methyldopa Cmax,max: mean (%CV)
Experimental: Following screening, all patients received a daily LD/CD dose of 500/125 mg for 2 weeks, administered as LD/CD 100/25 mg five times a day (five‐intake LD/CD 500/125 mg), fixed every 3 hours (from 8 AM to 8 PM) at pharmacokinetic day. Patients were then randomly assigned (1:1) to receive two different regimens of opicapone 50 mg plus LD/CD (400/100 mg daily) for an additional 2 weeks. • Patients on opicapone regimen 1 received LD/CD 100/25 mg four times a day plus opicapone 50 mg at least 1 hour after the last administration of LD/CD each day (four‐intake LD/CD 400/100 mg plus opicapone 50 mg), fixed every 4 hours (from 8 AM to 8 PM) at pharmacokinetic day. • Patients on opicapone regimen 2 received alternating LD/CD 100/25 mg and 50/12.5 mg doses (ie, 100/25 mg, 50/12.5 mg, 100/25 mg, 50/12.5 mg, and 100/25 mg) five times a day plus opicapone 50 mg at least 1 hour after the last administration of LD/CD each day (five‐intake LD/CD 400/100 mg plus opicapone 50 mg), fixed every 3 hours (from 8 AM to 8 PM) at pharmacokinetic day.
The primary objective of the study was to evaluate the pharmacokinetics of LD in the two opicapone LD/CD 400/100 mg dosing regimens (four and five intakes) when compared with the five‐intake LD/CD 500/125 mg regimen without opicapone. The pharmacokinetics study endpoint was set after 2 weeks of each treatment regimen (ie, at the end of the initial five‐intake LD/CD 500/125 mg treatment regimen and at the end of the LD/CD 400/100 mg plus opicapone treatment). Pharmacokinetic evaluation occurred over 12 hours with sampling every 30 minutes, except for the last sample following each LD dose in the opicapone plus four LD intake regimen, which was sampled at 1 hour. The main pharmacokinetics parameters assessed included maximum observed plasma concentration (Cmax), time to achieve peak plasma levels (tmax), minimum observed plasma concentration (Cmin), plasma elimination half‐life (t1/2), area under the curve (AUC), and fluctuation index (FI; as an expression of peak‐to‐trough fluctuation, Cmax, and Cmin, relative to average concentration [Cavg]). The pharmacokinetics of the LD metabolite 3‐O‐methyldopa (3‐OMD) was also evaluated.
Descriptive statistics were used to summarize the pharmacokinetics parameters for LD and 3‐OMD for each of the three regimens. […] No formal comparison was performed between opicapone regimens. Pharmacokinetic parameters were evaluated within the same population for each LD/CD 400/100 mg plus opicapone treatment regimen compared with the LD/CD 500/125 mg without opicapone regimen. Geometric mean ratios and corresponding 90% confidence intervals (CIs) for the LD and 3‐OMD log‐transformed pharmacokinetics parameters (AUCtotal, Cmax,max and Cmin,min [only for LD]) were calculated using a paired t test for the comparison between the five‐intake LD/CD 500/125 mg treatment without opicapone and each of the two LD/CD 400/100 mg plus opicapone regimens; only data from completers (patients with data for both regimens) were used for this analysis.

[2] = test system: patients with PD and end-of-dose motor fluctuations; experiment: 24-hour patient Hauser on/off diary; assay type: in vivo, human (patients with PD); settings: for ON-time With Non-Troublesome Dyskinesia / ON-time With Troublesome Dyskinesia / ON-time Without Dyskinesia / Total OFF-time / Total ON-time: 24-hour Hauser diary, mean (SD); for 24-h total off time, geometric mean (90% CI) / 24-h total on time, geometric mean (90% CI): N 12
Experimental: Clinical and safety/tolerability outcomes were also assessed as exploratory secondary outcomes. Clinical outcomes included on and off time assessed using patient‐rated tools. The timing of on and off states was registered (in real time) by the investigators during the matching 12‐hour pharmacokinetic evaluation (as such applied on pharmacokinetics days only), and patients also completed 24‐hour patient Hauser on/off diary charts[21] (in 30‐minute blocks) during the 3 days before each pharmacokinetic visit. Diary states of interest were off time and on time, including on without dyskinesia, on with nontroublesome dyskinesia, and on with troublesome dyskinesia. In addition, the Patient Global Impression of Change (PGI‐C) of opicapone 50 mg was evaluated at the end of the LD/CD 400/100 mg plus opicapone treatment compared with before the start of opicapone treatment.[22] Safety and tolerability endpoints included treatment‐emergent adverse events (TEAEs), serious TEAEs, and TEAEs leading to discontinuation.
Clinical outcomes are also presented descriptively. A paired t test was used for the comparison of 12‐hour off and on time, 24‐hour off and on time, time to on, and time to best on between each opicapone‐containing regimen and the regimen without opicapone. Estimates of mean difference and corresponding 90% CIs were reported for all main variables.

[3] = 5-intake LD/CD 500/125mg vs 4-intake LD/CD 400/100mg plus OPC 50mg, 1st LD/CD intake, mean
[4] = 5-intake LD/CD 500/125mg vs 4-intake LD/CD 400/100mg plus OPC 50mg, 2nd LD/CD intake, mean
[5] = 5-intake LD/CD 500/125mg vs 4-intake LD/CD 400/100mg plus OPC 50mg, 3rd LD/CD intake, mean
[6] = 5-intake LD/CD 500/125mg vs 4-intake LD/CD 400/100mg plus OPC 50mg, 4th LD/CD intake, mean
[7] = 5-intake LD/CD 500/125mg vs 4-intake LD/CD 400/100mg plus OPC 50mg
[8] = 5-intake LD/CD 500/125mg vs 5-intake LD/CD 400/100mg plus OPC 50mg, 1st LD/CD intake, mean
[9] = 5-intake LD/CD 500/125mg vs 5-intake LD/CD 400/100mg plus OPC 50mg, 2nd LD/CD intake, mean
[10] = 5-intake LD/CD 500/125mg vs 5-intake LD/CD 400/100mg plus OPC 50mg, 3rd LD/CD intake, mean
[11] = 5-intake LD/CD 500/125mg vs 5-intake LD/CD 400/100mg plus OPC 50mg, 4th LD/CD intake, mean
[12] = 5-intake LD/CD 500/125mg vs 5-intake LD/CD 400/100mg plus OPC 50mg
[13] = five-intake levodopa/carbidopa 500/125 mg vs five-intake levodopa/carbidopa 400/100 mg plus opicapone 50 mg
[14] = five-intake levodopa/carbidopa 500/125 mg vs four-intake levodopa/carbidopa 400/100 mg plus opicapone 50 mg

**Q.** Which “3-O-methyldopa Cmax,max, Geometric Mean (90% CI)” value ([1]; 5-intake LD/CD 500/125mg vs 4-intake LD/CD 400/100mg +OPC 50mg) does the source give for levodopa/carbidopa [LD/CD] here?
**A.** 4264 (3631, 5006) ng/mL

**Q.** And the “3-O-methyldopa AUCτ” value [1, 3]?
**A.** 10068^a h*ng/mL

**Q.** And the “3-O-methyldopa Cmax” value [1, 3]?
**A.** 3.453 µg/mL

**Q.** And the “3-O-methyldopa Cmin” value [1, 3]?
**A.** 3.021 µg/mL

**Q.** And the 3-O-methyldopa tmax ([1]; 5-intake LD/CD 500/125mg vs 4-intake LD/CD 400/100mg plus OPC 50mg, 1st LD/CD intake)?
**A.** 1.75 h

**Q.** And the “3-O-methyldopa Cmax” value [1, 4]?
**A.** 3.619 µg/mL

**Q.** And the “3-O-methyldopa Cmin” value [1, 4]?
**A.** 3.077 µg/mL

**Q.** And the 3-O-methyldopa tmax ([1]; 5-intake LD/CD 500/125mg vs 4-intake LD/CD 400/100mg plus OPC 50mg, 2nd LD/CD intake)?
**A.** 2.5 h

**Q.** And the “3-O-methyldopa AUCτ” value [1, 5]?
**A.** 14278^b h*ng/mL

**Q.** And the “3-O-methyldopa Cmax” value [1, 5]?
**A.** 4.011 µg/mL

**Q.** And the “3-O-methyldopa Cmin” value [1, 5]?
**A.** 3.437 µg/mL

**Q.** And the 3-O-methyldopa tmax ([1]; 5-intake LD/CD 500/125mg vs 4-intake LD/CD 400/100mg plus OPC 50mg, 3rd LD/CD intake)?
**A.** 2.71 h

**Q.** And the “3-O-methyldopa AUCτ” value ([1]; 5-intake LD/CD 500/125mg vs 4-intake LD/CD 400/100mg plus OPC 50mg, 4th LD/CD intake, 1 patient)?
**A.** 13519^c h*ng/mL

**Q.** What about the “3-O-methyldopa Cmax” value [1, 6] of the same substance?
**A.** 4.435 µg/mL

**Q.** What about the “3-O-methyldopa Cmin” value [1, 6] of the same substance?
**A.** 3.766 µg/mL

**Q.** And the 3-O-methyldopa tmax ([1]; 5-intake LD/CD 500/125mg vs 4-intake LD/CD 400/100mg plus OPC 50mg, 4th LD/CD intake)?
**A.** 2.5 h

**Q.** And the “3-O-methyldopa Cmax,max” value [1, 7]?
**A.** 4447 (29.2) ng/mL

**Q.** What about the “3-O-methyldopa Cmax,max, Geometric Mean (90% CI)” value ([1]; 5-intake LD/CD 500/125mg vs 5-intake LD/CD 400/100mg +OPC 50mg) of the same substance?
**A.** 4201 (3733, 4727) ng/mL

**Q.** What about the “3-O-methyldopa AUCτ” value [1, 8] of the same substance?
**A.** 8991^g h*ng/mL

**Q.** What about the “3-O-methyldopa Cmax” value [1, 8] of the same substance?
**A.** 3.191 µg/mL

**Q.** What about the “3-O-methyldopa Cmin” value [1, 8] of the same substance?
**A.** 2.868 µg/mL

**Q.** What about the 3-O-methyldopa tmax ([1]; 5-intake LD/CD 500/125mg vs 5-intake LD/CD 400/100mg plus OPC 50mg, 1st LD/CD intake) of the same substance?
**A.** 1.5 h

**Q.** And the “3-O-methyldopa AUCτ” value [1, 9]?
**A.** 9002^d h*ng/mL

**Q.** What about the “3-O-methyldopa Cmax” value [1, 9] of the same substance?
**A.** 3.406 µg/mL

**Q.** And the “3-O-methyldopa Cmin” value [1, 9]?
**A.** 2.907 µg/mL

**Q.** What about the 3-O-methyldopa tmax ([1]; 5-intake LD/CD 500/125mg vs 5-intake LD/CD 400/100mg plus OPC 50mg, 2nd LD/CD intake) of the same substance?
**A.** 2.5 h

**Q.** And the “3-O-methyldopa AUCτ” value ([1]; 5-intake LD/CD 500/125mg vs 5-intake LD/CD 400/100mg plus OPC 50mg, 3rd LD/CD intake, 1 patient)?
**A.** 11951^c h*ng/mL

**Q.** And the “3-O-methyldopa Cmax” value [1, 10]?
**A.** 3.875 µg/mL

**Q.** And the “3-O-methyldopa Cmin” value [1, 10]?
**A.** 3.151 µg/mL

**Q.** And the 3-O-methyldopa tmax ([1]; 5-intake LD/CD 500/125mg vs 5-intake LD/CD 400/100mg plus OPC 50mg, 3rd LD/CD intake)?
**A.** 2.5 h

**Q.** And the “3-O-methyldopa Cmax” value [1, 11]?
**A.** 4.17 µg/mL

**Q.** And the “3-O-methyldopa Cmin” value [1, 11]?
**A.** 3.586 µg/mL

**Q.** What about the 3-O-methyldopa tmax ([1]; 5-intake LD/CD 500/125mg vs 5-intake LD/CD 400/100mg plus OPC 50mg, 4th LD/CD intake) of the same substance?
**A.** 2.71 h

**Q.** And the “3-O-methyldopa Cmax,max” value [1, 12]?
**A.** 4300 (22.4) ng/mL

**Q.** What about the “ON-time With Non-Troublesome Dyskinesia” value [2, 7] of the same substance?
**A.** 86.7 (72.6) min

**Q.** What about the “ON-time With Troublesome Dyskinesia” value [2, 7] of the same substance?
**A.** 35.0 (26.5) min

**Q.** What about the “ON-time Without Dyskinesia” value [2, 7] of the same substance?
**A.** 411.7 (122.6) min

**Q.** What about the “Total OFF-time” value [2, 7] of the same substance?
**A.** 442.50 (96.3) min

**Q.** What about the “Total ON-time” value [2, 7] of the same substance?
**A.** 488.3 (110.9) min

**Q.** What about the “ON-time With Non-Troublesome Dyskinesia” value [2, 12] of the same substance?
**A.** 66.4 (48.0) min

**Q.** What about the “ON-time With Troublesome Dyskinesia” value [2, 12] of the same substance?
**A.** 20.0 (24.49) min

**Q.** And the “ON-time Without Dyskinesia” value [2, 12]?
**A.** 446.7 (110.0) min

**Q.** And the “Total OFF-time” value [2, 12]?
**A.** 431.70 (100.3) min

**Q.** And the “Total ON-time” value [2, 12]?
**A.** 519.2 (91.2) min

**Q.** And the “24-h total off time, geometric mean (90% CI)” value [2, 13]?
**A.** 420.3 (369.8, 477.6) min

**Q.** And the “24-h total on time, geometric mean (90% CI)” value [2, 13]?
**A.** 512.5 (470.9, 557.9) min

**Q.** And the “24-h total off time, geometric mean (90% CI)” value [2, 14]?
**A.** 433.0 (386.4, 485.0) min

**Q.** What about the “24-h total on time, geometric mean (90% CI)” value [2, 14] of the same substance?
**A.** 476.5 (421.9, 538.2) min
